Source: publication PMC8020424, “Characterization of D-xylose reductase, XyrB, from Aspergillus niger” (Biotechnology Reports, 2021)
Read-outs that look alike come from different tables or passages of the source.

System: T1, XyrB
T1 construct: full-length intron-free codon-optimized gene in pET-28a(+), E. coli BL21(DE3)pLysS, HisTrap purified; AKR motif 22-277
Assay: NADPH consumption at […] nm, Michaelis-Menten fit
Format: biochemical, Aspergillus niger
Settings: 0.2 mM NADPH, PBS pH 7.0, 25 °C

Row | Km (read-out: D-xylose / Km) | SMILES | Km (read-out: Km)
1 |  | OC[C@H]1OC(O)[C@H](O)[C@@H](O)[C@H]1O (stereo partly drawn) [D-galactose] | 12.5 mM
2 | 3.3 mM | OC1OC[C@@H](O)[C@H](O)[C@H]1O (stereo partly drawn) [D-xylose] | 
3 |  | OC1OC[C@H](O)[C@H](O)[C@H]1O (stereo partly drawn) [L-arabinose] | 9.9 mM
